According to the NIST ThermoML archive (doi:10.1016/j.tca.2008.09.006):

Experiment: xn = mol fraction of the nth substance listed
Details: 303.15 K, 101 kPa, Liquid; for viscosity: Capillary tube (Ostwald / Ubbelohde) method; for mass density: Vibrating tube method

C1CCCCC1 [cyclohexane] + CCCCN(CCCC)CCCC
x2 = 0
Details	mass density [kg/m3]	viscosity [mPa·s]
–	769.16	0.819

C1CCCCC1 [cyclohexane] + CCCO
Details	mass density [kg/m3]	viscosity [mPa·s]
x2 = 0	769.16	0.819
x2 = 0.1021	769.52	0.832
x2 = 0.2112	770.68	0.872
x2 = 0.3122	772.37	0.922
x2 = 0.4211	774.63	0.986
x2 = 0.5151	776.9	1.053
x2 = 0.6203	779.94	1.148
x2 = 0.7208	783.15	1.264
x2 = 0.8143	786.73	1.398
x2 = 0.9079	790.83	1.555

C1CCCCC1 [cyclohexane] + CCN(CC)CC
x2 = 0
Details	mass density [kg/m3]	viscosity [mPa·s]
–	769.16	0.819

CCCO [propan-1-ol] + C1CCCCC1
x1 = 1
Details	mass density [kg/m3]	viscosity [mPa·s]
–	795.66	1.727

CCCO [propan-1-ol] + CCCCN(CCCC)CCCC
x2 = 0
Details	mass density [kg/m3]	viscosity [mPa·s]
–	795.66	1.727

CCCO [propan-1-ol] + CCN(CC)CC
x2 = 0
Details	mass density [kg/m3]	viscosity [mPa·s]
–	795.66	1.727

CCCCN(CCCC)CCCC [tributylamine] + C1CCCCC1
Details	mass density [kg/m3]	viscosity [mPa·s]
x1 = 0.1023	768.32	0.848
x1 = 0.2014	768.09	0.878
x1 = 0.3008	768.17	0.914
x1 = 0.4016	768.42	0.947
x1 = 0.5002	768.78	0.985
x1 = 0.6018	769.15	1.025
x1 = 0.7021	769.57	1.058
x1 = 0.8012	769.85	1.096
x1 = 0.9024	770.12	1.13
x1 = 1	770.39	1.167

CCCCN(CCCC)CCCC [tributylamine] + CCCO
Details	mass density [kg/m3]	viscosity [mPa·s]
x1 = 0.0986	791.71	1.695
x1 = 0.1991	788.31	1.66
x1 = 0.2978	785.47	1.619
x1 = 0.4984	780.18	1.514
x1 = 0.5992	777.82	1.449
x1 = 0.6031	777.75	1.445
x1 = 0.6981	775.71	1.378
x1 = 0.7989	773.78	1.302
x1 = 0.8988	771.94	1.233
x1 = 1	770.39	1.167

CCN(CC)CC [triethylamine] + C1CCCCC1
Details	mass density [kg/m3]	viscosity [mPa·s]
x1 = 0.0995	761.78	0.697
x1 = 0.1947	755.57	0.614
x1 = 0.291	749.84	0.548
x1 = 0.3963	744.18	0.495
x1 = 0.4999	739.03	0.453
x1 = 0.5961	734.6	0.42
x1 = 0.6989	730.17	0.392
x1 = 0.7968	726.09	0.374
x1 = 0.8973	722.21	0.348
x1 = 1	718.45	0.33

CCN(CC)CC [triethylamine] + CCCO
Details	mass density [kg/m3]	viscosity [mPa·s]
x1 = 0.2007	783.21	1.189
x1 = 0.295	775.99	1.007
x1 = 0.3226	773.73	0.954
x1 = 0.393	767.95	0.845
x1 = 0.4852	760.11	0.719
x1 = 0.6128	749.28	0.574
x1 = 0.7308	739.53	0.47
x1 = 0.7637	736.85	0.444
x1 = 0.8776	727.89	0.375
x1 = 1	718.45	0.33
